Consider one compound from US20200261596A1, “Therapeutic Particles with Peptide Boronic Acid or Boronate Ester Compounds and Methods of Making and Using Same” (Pfizer Inc., priority 2016, published 2020).

Data set [1] can be described thus: Bortezomib solubility. Type of data set: physicochemical. Particulars: read-out: BTZ solubility.
Data set [2] in a line: Pharmacologic kinetic profile in rats (plasma levels by LCMS). Type of data set: in vivo, Sprague-Dawley rats. The following applies: single intravenous dose of 0.1 mg/kg, FIG. 13A. The method, then:
Rats (male Sprague Dawley, approximately 300 g with jugular cannulae are given a single intravenous dose of 0.1 mg/kg free drug or passively targeted nanoparticles (PTNP) encapsulating drug at time t=0. At various times after dosing, blood samples are collected from the jugular cannulae into tubes containing lithium heparin, and plasma is prepared. Plasma levels are determined by extraction of the drug from plasma followed by LCMS analysis.

Molecules are shown by their SMILES. Converted amounts (≈) assume the structure as drawn. Like-named read-outs stand apart in the source and are kept apart here. Where only a bound is given, the exact number is not on record here.

As for `CC(C)C[C@H](NC(=O)[C@H](Cc1ccccc1)NC(=O)c1cnccn1)B(O)O` [Bortezomib, bortezomib], the solubility in data set [1] (0.5% sodium cholate, 2% BA, 4% EA in water (water phase), aqueous with cosolvent or surfactant or cyclodextrin, Water phase: 0.5% sodium cholate, 2% BA, 4% EA in water) is 1300 µg/mL (≈ 3.38 mM); in data set [1] (benzyl alcohol:ethyl acetate 21:79 (w/w %) (oil phase), organic solvent or mixture, Oil phase: Benzyl alcohol:Ethyl acetate (BA:EA = 21:79, w/w %)), more than 93000 µg/mL; in data set [1] (water (quench phase), water, Quench phase: water), 1100 µg/mL (≈ 2.86 mM). Moreover, the “circulation time / plasma clearance” value in data set [2] was “rapidly cleared from the plasma”.
